Source: US9414579B2, “Systems and methods for controlling pest infestation of a woody plant” (Dow AgroSciences LLC, priority 2013, dated 2016)

Experiments:
[1] = system: Coptotermes spp.; experiment: Example I: field test on a 100 hectare oil palm plot, Quadrants A-D, infested trees inspected monthly for 24 months; format: in vivo; conditions: liquid fipronil 2.5 ml/5 L drenching
Description: Testing was performed to determine the effect in the field of an extruded composite member in the form of Recruit® HD, further details of which are provided in U.S. patent application Ser. No. 12/004,655, on Coptotermes spp. More particularly, a 100 hectare plot of oil palm trees was divided into four quadrants: Quadrants A, B, C and D. The palm oil trees in each of Quadrants A-D were investigated for the presence of termite activity or infestation, and the affected trees were marked accordingly. The affected trees in Quadrants A and C were each treated with liquid fipronil (2.5 ml/5 L drenching), and the affected trees in Quadrants B and D were each treated with a 50 g extruded composite member in the form of Recruit® HD (0.5% hexaflumuron) in a manner similar to that described above in connection with system 60. For Quadrants B and D, consumption of the extruded composite members was investigated and recorded accordingly. Post-treatment inspection of the affected trees was performed on a monthly basis for 24 months following initiation of treatment.
The results of the treatments in Quadrants A-D on a monthly basis over a 24 month period of time following initial treatment are graphically illustrated in FIG. 6.

[2] = system: Coptotermes spp.; experiment: Example II: field test on a 60 hectare oil palm plot divided into two plots, infested trees inspected monthly for 24 months; format: in vivo; conditions: for Infested Trees: plot 1 (4461 trees) liquid fipronil 2.0 ml/5 L drenching, plot 2 (4432 trees) 50 g Recruit HD per affected tree; for % Infestation: cumulative results, plot 1 fipronil, plot 2 Recruit HD
Description: Testing was performed to determine the effect in the field of an extruded composite member in the form of Recruit® HD, further details of which are provided in U.S. patent application Ser. No. 12/004,655, on Coptotermes spp. More particularly, a 60 hectare plot of oil palm trees was divided into two plots. The palm oil trees in each of the plots were investigated for the presence of termite activity or infestation, and the affected trees were marked accordingly. The affected trees in plot 1 were each treated with liquid fipronil (2.0 ml/5 L drenching), and the affected trees in plot 2 were each treated with a 50 g extruded composite member in the form of Recruit® HD (0.5% hexaflumuron) in a manner similar to that described above in connection with system 60. For plots 1 and 2, consumption of the extruded composite members was investigated and recorded accordingly. Post-treatment inspection of the affected trees was performed on a monthly basis for 24 months following initiation of treatment.

## N#Cc1nn(-c2c(Cl)cc(C(F)(F)F)cc2Cl)c(N)c1[S+]([O-])C(F)(F)F (stereo not drawn) [Fipronil, fipronil]
[1]; Quadrant A (2246 trees), 0 months (before treatment)
  Infested Trees: 29
[1]; Quadrant A (2246 trees), 7 months
  Infested Trees: 30
[1]; Quadrant A (2246 trees), 12 months
  Infested Trees: 29
[1]; Quadrant A (2246 trees), 18 months
  Infested Trees: 20
[1]; Quadrant A (2246 trees), 24 months
  Infested Trees: 13
[1]; Quadrant C (2215 trees), 0 months (before treatment)
  Infested Trees: 71
[1]; Quadrant C (2215 trees), 7 months
  Infested Trees: 45
[1]; Quadrant C (2215 trees), 12 months
  Infested Trees: 51
[1]; Quadrant C (2215 trees), 18 months
  Infested Trees: 40
[1]; Quadrant C (2215 trees), 24 months
  Infested Trees: 22
[2]; 0 months (before treatment)
  Infested Trees: 100
[2]; 1 year
  % Infestation: 2.31%
[2]; 2 year
  % Infestation: 1.76%
[2]; 7 months
  Infested Trees: 75
[2]; 12 months
  Infested Trees: 80
[2]; 18 months
  Infested Trees: 60
[2]; 24 months
  Infested Trees: 35
[2]; Pre-Treatment
  % Infestation: 2.24%
